Source: ChEMBL document CHEMBL1671716, “Antimicrobial susceptibility patterns for recent clinical isolates of anaerobic bacteria in South Korea” (2010)
In brackets after ≈: the same amount, converted by molar mass.

Legend:
Clostridium perfringens = experiment: Antimicrobial activity against Clostridium perfringens after 48 hrs by agar dilution method; type: functional
Clostridioides difficile = experiment: Antimicrobial activity against Clostridium difficile after 48 hrs by agar dilution method; type: functional

`CN[C@H](CC(C)C)C(=O)N[C@H]1C(=O)N[C@@H](CC(N)=O)C(=O)N[C@H]2C(=O)N[C@H]3C(=O)N[C@H](C(=O)N[C@H](C(=O)O)c4cc(O)cc(O)c4-c4cc3ccc4O)[C@H](O)c3ccc(c(Cl)c3)Oc3cc2cc(c3O[C@@H]2O[C@H](CO)[C@@H](O)[C@H](O)[C@H]2O[C@H]2C[C@](C)(N)[C@H](O)[C@H](C)O2)Oc2ccc(cc2Cl)[C@H]1O` [VANCOMYCIN] was tested, and the MIC50 (Clostridium perfringens) was 0.5 µg/mL (≈ 0.345 µM), the MIC90 (Clostridium perfringens) was 0.5 µg/mL (≈ 0.345 µM) and the MIC50 (Clostridioides difficile) was 0.5 µg/mL (≈ 0.345 µM). It also gave an MIC90 (Clostridioides difficile) of 2 µg/mL (≈ 1.38 µM).
